Reference: PMC4887296 (Biochemistry, 2016)
Read-outs that look alike come from different tables or passages of the source.

Experiments:
wild-type ypFabV [1] = target: T1, wild-type ypFabV (Yersinia pestis, UniProt Q8Z9U1); assay type: biochemical
wild-type ypFabV [2] = target: T1, wild-type ypFabV; assay type: biochemical; remark: listed apart in the source
Wt ypFabV = Wt ypFabV (Yersinia pestis, UniProt Q8Z9U1); experiment: biochemical; assay type: binding
Chain of Wt ypFabV (Q8Z9U1 whole entry, looked up): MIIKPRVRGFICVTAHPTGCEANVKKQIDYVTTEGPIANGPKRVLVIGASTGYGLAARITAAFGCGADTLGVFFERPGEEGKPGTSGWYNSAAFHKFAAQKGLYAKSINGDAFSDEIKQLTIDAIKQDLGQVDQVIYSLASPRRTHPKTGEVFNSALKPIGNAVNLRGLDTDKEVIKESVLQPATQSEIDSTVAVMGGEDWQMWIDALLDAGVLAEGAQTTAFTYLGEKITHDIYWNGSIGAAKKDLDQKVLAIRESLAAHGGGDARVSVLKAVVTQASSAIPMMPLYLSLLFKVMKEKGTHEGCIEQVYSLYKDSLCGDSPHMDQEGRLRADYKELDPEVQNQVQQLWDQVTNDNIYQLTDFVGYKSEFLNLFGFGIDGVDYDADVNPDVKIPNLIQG

T1 sequence (Q8Z9U1 whole entry, looked up): as above

| Structure (SMILES) | kcat, wild-type ypFabV (wild-type ypFabV [1]) [s⁻¹] | Km (wild-type ypFabV [1]; read-out: KM, wild-type ypFabV) [µM] | product inhibition pattern with respect to NADH, wild-type ypFabV (wild-type ypFabV [2]) | product inhibition pattern with respect to ddCoA, wild-type ypFabV (wild-type ypFabV [2]) | Km (wild-type ypFabV [1]; read-out: KM (global fit)) [µM] | also measured |
| --- | --- | --- | --- | --- | --- | --- |
| CCCCC/C=C/C(=O)SCCNC(=O)CCNC(=O)[C@H](O)C(C)(C)COP(=O)(O)OP(=O)(O)OC[C@H]1O[C@@H](n2cnc3c(N)ncnc32)[C@H](O)[C@@H]1OP(=O)(O)O [trans-2-octenoyl-CoA] | 0.267 ± 0.017 | 7 ± 1 |  |  |  |  |
| NC(=O)c1ccc[n+]([C@@H]2O[C@H](COP(=O)([O-])OP(=O)(O)OC[C@H]3O[C@@H](n4cnc5c(N)ncnc54)[C@H](O)[C@@H]3O)[C@@H](O)[C@H]2O)c1 [NAD^+] |  |  | competitive | noncompetitive |  |  |
| CCCCCCCCCCCC(=O)SCCNC(=O)CCNC(=O)[C@H](O)C(C)(C)COP(=O)(O)OP(=O)(O)OC[C@H]1O[C@@H](n2cnc3c(N)ncnc32)[C@H](O)[C@@H]1OP(=O)(O)O [lauroyl-CoA, Lauroyl-CoA] |  |  | noncompetitive | noncompetitive |  |  |
| CCCCCCC/C=C/C(=O)SCCNC(=O)CCNC(=O)[C@H](O)C(C)(C)COP(=O)(O)OP(=O)(O)OC[C@H]1O[C@@H](n2cnc3c(N)ncnc32)[C@H](O)[C@@H]1OP(=O)(O)O [trans-2-decenoyl-CoA] | 5.53 ± 0.333 | 23 ± 3 |  |  |  |  |
| NC(=O)C1=CN([C@@H]2O[C@H](COP(=O)(O)OP(=O)(O)OC[C@H]3O[C@@H](n4cnc5c(N)ncnc54)[C@H](O)[C@@H]3O)[C@@H](O)[C@H]2O)C=CC1 [NADH] |  |  |  |  | 10 ± 1 | Ki (wild-type ypFabV [1]; read-out: Ki, NADH): 22 ± 3 µM; Kd (Wt ypFabV; read-out: Kd Wt ypFabV, pH 8): 13 ± 1 µM |
| CCCCCCCCC/C=C/C(=O)SCCNC(=O)CCNC(=O)[C@H](O)C(C)(C)COP(=O)(O)OP(=O)(O)OC[C@H]1O[C@@H](n2cnc3c(N)ncnc32)[C@H](O)[C@@H]1OP(=O)(O)O [ddCoA, trans-2-dodecenoyl-CoA] | 91.13 ± 7.1 | 14 ± 1 |  |  | 19 ± 1 | kcat (global fit) (wild-type ypFabV [1]): 97.67 ± 6.47 s⁻¹; Kd (Wt ypFabV): 13 ± 1 µM |
